Measurements: patent US7632972B2, “Compounds and methods for treatment of cancer and modulation of programmed cell death for melanoma and other cancer cells” (The Board of Trustees of the University of Illionis, priority 2003, dated 2009)

Legend:
A549/ATCC = test: NCI 60 cell line screen (SRB), Non-Small Cell Lung Cancer; assay type: cell-based, human
From the text: (§1) The operation of this screen utilizes 60 different human tumor cell lines, representing leukemia, melanoma and cancers of the lung, colon, brain, ovary, breast, prostate, and kidney. The aim is to prioritize for further evaluation, synthetic compounds or natural product samples showing selective growth inhibition or cell killing of particular tumor cell lines. This screen is unique in that the complexity of a 60 cell line dose response produced by a given compound results in a biological response pattern which can be utilized in pattern recognition algorithms. Using these algorithms, it is possible to assign a putative mechanism of action to a test compound, or to determine that the response pattern is unique and not similar to that of any of the standard prototype compounds included in the NCl database (see DTP Overview tab). In addition, following characterization of various cellular molecular targets in the 60 cell lines, it may be possible to select compounds most likely to interact with a specific molecular target.
(§2) The human tumor cell lines of the cancer screening panel are grown in RPMI 1640 medium containing 5% fetal bovine serum and 2 mM L-glutamine. For a typical screening experiment, cells are inoculated into 96 well microtiter plates in 100 μL at plating densities ranging from 5,000 to 40,000 cells/well depending on the doubling time of individual cell lines. After cell inoculation, the microtiter plates are incubated at 37° C., 5% CO2, 95% air and 100% relative humidity for 24 h prior to addition of experimental drugs.
(§3) After 24 h, two plates of each cell line are fixed in situ with TCA, to represent a measurement of the cell population for each cell line at the time of drug addition (Tz). Experimental drugs are solubilized in dimethyl sulfoxide at 400-fold the desired final maximum test concentration and stored frozen prior to use. At the time of drug addition, an aliquot of frozen concentrate is thawed and diluted to twice the desired final maximum test concentration with complete medium containing 50 μg/ml gentamicin. Additional four, 10-fold or ½ log serial dilutions are made to provide a total of five drug concentrations plus control. Aliquots of 100 μl of these different drug dilutions are added to the appropriate microtiter wells already containing 100 μl of medium, resulting in the required final drug concentrations.
(§4) Following drug addition, the plates are incubated for an additional 48 h at 37° C., 5% CO2, 95% air, and 100% relative humidity. For adherent cells, the assay is terminated by the addition of cold TCA. Cells are fixed in situ by the gentle addition of 50 μl of cold 50% (w/v) TCA (final concentration, 10% TCA) and incubated for 60 minutes at 4° C. The supernatant is discarded, and the plates are washed five times with tap water and air dried. Sulforhodamine B (SRB) solution (100 μl) at 0.4% (w/v) in 1% acetic acid is added to each well, and plates are incubated for 10 minutes at room temperature. After staining, unbound dye is removed by washing five times with 1% acetic acid and the plates are air dried. Bound stain is subsequently solubilized with 10 mM trizma base, and the absorbance is read on an automated plate reader at a wavelength of 515 nm. For suspension cells, the methodology is the same except that the assay is terminated by fixing settled cells at the bottom of the wells by gently adding 50 μl of 80% TCA (final concentration, 16% TCA). Using the seven absorbance measurements [time zero, (Tz), control growth, (C), and test growth in the presence of drug at the five concentration levels (Ti)], the percentage growth is calculated at each of the drug concentrations levels. Percentage growth inhibition is calculated as: [(Ti−Tz)/(C−Tz)]×100 for concentrations for which Ti>/=Tz [(Ti−Tz)/Tz]×100 for concentrations for which Ti<Tz.
(§5) Three dose response parameters are calculated for each experimental agent. […]

EKVX = test: as above; assay type: cell-based, human
From the text: as §1, §2, §3, §4, §5

HOP-62 = test: as above; assay type: cell-based, human
From the text: as §1, §2, §3, §4, §5

HOP-92 = test: as above; assay type: cell-based, human
From the text: as §1, §2, §3, §4, §5

NCI-H460 = test: as above; assay type: cell-based, human
From the text: as §1, §2, §3, §4, §5

NCI-H522 = test: as above; assay type: cell-based, human
From the text: as §1, §2, §3, §4, §5

HCT-15 = test: NCI 60 cell line screen (SRB), Colon Cancer; assay type: cell-based, human
From the text: as §1, §2, §3, §4, §5

KM12 = test: NCI 60 cell line screen (SRB), Colon Cancer; assay type: cell-based, human
From the text: as §1, §2, §3, §4, §5

SW-620 = test: NCI 60 cell line screen (SRB), Colon Cancer; assay type: cell-based, human
From the text: as §1, §2, §3, §4, §5

[1] = read-out: LC50 (the source's name)

COc1cccc(CCNC(=O)CC(c2ccccc2)(c2ccccc2)c2ccccc2)c1 [Compound Z3]
GI50 (A549/ATCC): 4.11 µM | TGI (A549/ATCC): 9.65E−05 | Percent Growth (A549/ATCC; Log10 Concentration −5.0): 25% | Percent Growth (A549/ATCC; Log10 Concentration −6.0): 89% | Percent Growth (A549/ATCC; Log10 Concentration −7.0): 94% | Percent Growth (A549/ATCC; Log10 Concentration −8.0): 102% | CC50 (A549/ATCC; [1]): > 100 µM | GI50 (EKVX): 22.7 µM | TGI (EKVX): >1.00E−04 | Percent Growth (EKVX; Log10 Concentration −4.0): 29% | Percent Growth (EKVX; Log10 Concentration −5.0): 62% | Percent Growth (EKVX; Log10 Concentration −6.0): 109% | Percent Growth (EKVX; Log10 Concentration −7.0): 121% | Percent Growth (EKVX; Log10 Concentration −8.0): 108% | CC50 (EKVX; [1]): > 100 µM | GI50 (HOP-62; HOP-62): 59.4 µM | TGI (HOP-62; HOP-62): >1.00E−04 | Percent Growth (HOP-62; HOP-62, Log10 Concentration −4.0): 40% | Percent Growth (HOP-62; HOP-62, Log10 Concentration −5.0): 83% | Percent Growth (HOP-62; HOP-62, Log10 Concentration −6.0): 97% | Percent Growth (HOP-62; HOP-62, Log10 Concentration −7.0): 105% | Percent Growth (HOP-62; HOP-62, Log10 Concentration −8.0): 92% | CC50 (HOP-62; HOP-62, read-out: LC50 (the source's name)): > 100 µM | GI50 (HOP-92; HOP-92): > 100 µM | TGI (HOP-92; HOP-92): >1.00E−04 | Percent Growth (HOP-92; HOP-92, Log10 Concentration −4.0): 68% | Percent Growth (HOP-92; HOP-92, Log10 Concentration −5.0): 70% | Percent Growth (HOP-92; HOP-92, Log10 Concentration −6.0): 94% | Percent Growth (HOP-92; HOP-92, Log10 Concentration −7.0): 94% | Percent Growth (HOP-92; HOP-92, Log10 Concentration −8.0): 99% | CC50 (HOP-92; HOP-92, read-out: LC50 (the source's name)): > 100 µM | GI50 (NCI-H460; NCI-H460): 10.5 µM | TGI (NCI-H460; NCI-H460): >1.00E−04 | Percent Growth (NCI-H460; NCI-H460, Log10 Concentration −4.0): 18% | Percent Growth (NCI-H460; NCI-H460, Log10 Concentration −5.0): 51% | Percent Growth (NCI-H460; NCI-H460, Log10 Concentration −6.0): 90% | Percent Growth (NCI-H460; NCI-H460, Log10 Concentration −7.0): 117% | Percent Growth (NCI-H460; NCI-H460, Log10 Concentration −8.0): 97% | CC50 (NCI-H460; NCI-H460, read-out: LC50 (the source's name)): > 100 µM | TGI (NCI-H522; NCI-H522): 8.45E−05 | Percent Growth (NCI-H522; NCI-H522, Log10 Concentration −4.0): −1% | Percent Growth (NCI-H522; NCI-H522, Log10 Concentration −5.0): 12% | Percent Growth (NCI-H522; NCI-H522, Log10 Concentration −6.0): 58% | Percent Growth (NCI-H522; NCI-H522, Log10 Concentration −7.0): 46% | Percent Growth (NCI-H522; NCI-H522, Log10 Concentration −8.0): 67% | CC50 (NCI-H522; NCI-H522, read-out: LC50 (the source's name)): > 100 µM | GI50 (HCT-15; HCT-15): > 100 µM | TGI (HCT-15; HCT-15): >1.00E−04 | Percent Growth (HCT-15; HCT-15, Log10 Concentration −4.0): 57% | Percent Growth (HCT-15; HCT-15, Log10 Concentration −5.0): 62% | Percent Growth (HCT-15; HCT-15, Log10 Concentration −6.0): 86% | Percent Growth (HCT-15; HCT-15, Log10 Concentration −7.0): 99% | Percent Growth (HCT-15; HCT-15, Log10 Concentration −8.0): 103% | CC50 (HCT-15; HCT-15, read-out: LC50 (the source's name)): > 100 µM | GI50 (KM12; KM12): 4.75 µM | TGI (KM12; KM12): >1.00E−04 | Percent Growth (KM12; KM12, Log10 Concentration −4.0): 14% | Percent Growth (KM12; KM12, Log10 Concentration −5.0): 25% | Percent Growth (KM12; KM12, Log10 Concentration −6.0): 101% | Percent Growth (KM12; KM12, Log10 Concentration −7.0): 107% | Percent Growth (KM12; KM12, Log10 Concentration −8.0): 111% | CC50 (KM12; KM12, read-out: LC50 (the source's name)): > 100 µM | GI50 (SW-620; SW-620): 85.2 µM | TGI (SW-620; SW-620): >1.00E−04 | Percent Growth (SW-620; SW-620, Log10 Concentration −4.0): 49% | Percent Growth (SW-620; SW-620, Log10 Concentration −5.0): 64% | Percent Growth (SW-620; SW-620, Log10 Concentration −6.0): 97% | Percent Growth (SW-620; SW-620, Log10 Concentration −7.0): 105% | Percent Growth (SW-620; SW-620, Log10 Concentration −8.0): 95% | CC50 (SW-620; SW-620, read-out: LC50 (the source's name)): > 100 µM | GI50 (HL-60(TB)): 17.5 µM | TGI (HL-60(TB)): >1.00E−04 | CC50 (HL-60(TB); read-out: LC50): > 100 µM
